Experimental data: publication PMC7263589, “Integration of phage and yeast display platforms: A reliable and cost effective approach for binning of peptides as displayed on-phage” (PLoS ONE, 2020)
Bridge positions count the residues as written; N and C are the ends. Peptide text beside a SMILES is read from it.

Tests used:
[1] = molecular target: FGL-containing peptide phage (FGL Phage); experiment: flow cytometry on yeast-displayed IL-23, phage detected with anti-M13-AF647; settings: n = 2; parent: est. 24; read off a plot
IL-23 = molecular target: T1, IL-23 (Homo sapiens, UniProt P29460+Q9NPF7); experiment: SPR direct binding to captured IL-23-AVI (Biacore T200); settings: for kon: 50 μl/min, 10 mM HEPES pH 7.5, 150 mM NaCl, 0.005% P20, 3% DMSO, multi-cycle (single cycle kinetics for 23–652 and IL-23R), read-out: ka
T1 construct: made in house
T1 sequence (Q9NPF7 20-189): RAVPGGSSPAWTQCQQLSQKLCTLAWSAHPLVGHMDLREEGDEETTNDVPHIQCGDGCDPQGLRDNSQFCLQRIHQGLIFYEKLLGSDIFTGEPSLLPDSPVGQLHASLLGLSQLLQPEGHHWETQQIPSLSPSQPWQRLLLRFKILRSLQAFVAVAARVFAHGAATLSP
T1 sequence (P29460 23-328): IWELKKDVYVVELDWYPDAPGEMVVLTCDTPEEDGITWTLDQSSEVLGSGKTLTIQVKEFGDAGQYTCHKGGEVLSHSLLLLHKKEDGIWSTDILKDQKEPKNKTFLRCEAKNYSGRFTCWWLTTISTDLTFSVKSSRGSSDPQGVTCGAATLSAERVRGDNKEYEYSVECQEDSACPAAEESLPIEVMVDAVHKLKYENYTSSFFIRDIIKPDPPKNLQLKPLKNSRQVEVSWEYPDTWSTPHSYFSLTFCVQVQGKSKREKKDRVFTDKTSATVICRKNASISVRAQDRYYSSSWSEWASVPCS
Description: SPR (Biacore T200, GE Healthcare) was used to determine binding constants of the peptides against IL-23 and their competitiveness to IL-23R. All SPR experiments were performed at 25°C with flow rate of 50 μl/min. Assay buffer used in direct binding experiment was 10 mM HEPES pH 7.5, 150 mM NaCl, 0.005% P20, and 3% DMSO. Assay buffer used in competition experiment was 10 mM HEPES pH 7.5, 150 mM NaCl, 0.005% P20, and 1% BSA. All peptides were reconstituted first in DMSO as 10 mM stocks and then diluted into assay buffer. The proteins used in direct binding and competition SPR are described in S1 Table in S1 File. For direct binding of peptides against IL-23, 2000–9000 RU of IL-23-AVI was captured to streptavidin sensor chips (GE Healthcare, Series S Sensor Chip SA, BR-1005-31). Dilution series with 3-fold increment were prepared for each peptide. Initially, all peptides were tested up to 30 μM. Concentration range for some were then lowered accordingly based on affinity or nuisance behavior at high concentrations. SPR “multi-cycle” type was used for peptides 23–644, 23–437, 23–441, 23–446, and 23–447. Each cycle consisted of 30s of analyte injection and then 60s of buffer flow to monitor dissociation. “Single cycle kinetics” (SCK) type was used for 23–652 due to their long dissociation half-lives. Each SCK cycle consisted of five 60s injections of sample in increasing concentration with a final 600s of dissociation. To study IL-23 and IL-23R interaction, 200–1000 RU of IL-23-AVI and IL-23R-Fc-AVI were captured to streptavidin sensor chip. Dilution series with 3-fold increment of IL-23R-FLAG-HIS and IL-23-HIS were run in SCK cycle type as described above except the final dissociation time were 60-300s. Sensorgrams from the entire titration series for each sample were fitted globally to extract binding kinetics and affinity using Biacore T200 Evaluation Software 2.0 (GE Healthcare) according to a 1:1 binding model. To identify IL-23 binders that can block receptor binding, a competition SPR was established. In each SPR cycle, fresh IL-23R was capture (<1000 RU) by injecting 10 μg/ml of IL-23R-Fc-AVI to a Protein-A flow cell at 10 μl/min flow rate for 30s. Analyte consisted of a mixture of 20 nM of IL-23 protein and a single concentration of peptide was then injected for 30s at 50 μl/min to observe IL-23 binding. Finally, the Protein-A surface was regenerated by 10 mM Glycine pH 1.5 for 30s at 30 μl/min. IL-23 at 20 nM without peptide, “IL-23 only”, was used as control to quantify IL-23 binding without blockage; while “cold” IL-23R was used as a positive control for blockage.

[2] = IL-23-AVI captured on streptavidin chip, 25°C, 1:1 binding model, n = 1, 23–447 an estimate

Sequence of wild-type IL-23 displayed on yeast (from UniProt Q9NPF7;P29460) L24A (P29460 whole entry, looked up): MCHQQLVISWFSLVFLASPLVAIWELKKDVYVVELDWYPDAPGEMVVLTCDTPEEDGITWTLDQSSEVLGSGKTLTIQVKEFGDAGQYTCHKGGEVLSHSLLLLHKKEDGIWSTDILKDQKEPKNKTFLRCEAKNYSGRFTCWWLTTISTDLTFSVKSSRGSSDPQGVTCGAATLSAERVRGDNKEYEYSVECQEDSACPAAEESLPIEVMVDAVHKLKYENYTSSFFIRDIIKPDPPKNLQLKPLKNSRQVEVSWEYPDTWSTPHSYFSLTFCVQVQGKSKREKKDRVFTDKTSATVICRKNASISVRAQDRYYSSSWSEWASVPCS
Sequence of wild-type IL-23 displayed on yeast (from UniProt Q9NPF7;P29460) L24A (Q9NPF7 whole entry, looked up): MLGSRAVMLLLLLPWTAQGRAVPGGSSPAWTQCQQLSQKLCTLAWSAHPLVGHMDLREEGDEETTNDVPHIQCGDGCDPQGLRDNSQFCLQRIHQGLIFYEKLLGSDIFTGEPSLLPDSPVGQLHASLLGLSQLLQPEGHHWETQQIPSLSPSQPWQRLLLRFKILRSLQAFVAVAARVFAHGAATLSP
Sequence of wild-type IL-23 displayed on yeast (from UniProt Q9NPF7;P29460) K20A (P29460 whole entry, looked up): as the sequence (P29460 whole entry, looked up) above
Sequence of wild-type IL-23 displayed on yeast (from UniProt Q9NPF7;P29460) K20A (Q9NPF7 whole entry, looked up): as the sequence (Q9NPF7 whole entry, looked up) above
Sequence of wild-type IL-23 displayed on yeast (from UniProt Q9NPF7;P29460) W26A (P29460 whole entry, looked up): as the sequence (P29460 whole entry, looked up) above
Sequence of wild-type IL-23 displayed on yeast (from UniProt Q9NPF7;P29460) W26A (Q9NPF7 whole entry, looked up): as the sequence (Q9NPF7 whole entry, looked up) above

Compound	response [1]	kon (IL-23; [2])	other results
wild-type IL-23 displayed on yeast (from UniProt Q9NPF7;P29460) L24A	17		
wild-type IL-23 displayed on yeast (from UniProt Q9NPF7;P29460) W26A	1.1		
CC(C)C[C@H](NC(=O)CN)C(=O)N[C@@H](CCCNC(=N)N)C(=O)N[C@@H](CCC(=O)O)C(=O)N[C@@H](CCCNC(=N)N)C(=O)N[C@H]1CSSC[C@@H](C(=O)N[C@@H](CCC(N)=O)C(=O)N[C@@H](CC(N)=O)C(=O)N[C@@H](Cc2c[nH]c3ccccc23)C(=O)N[C@@H](Cc2ccc(O)cc2)C(=O)N[C@@H](Cc2c[nH]c3ccccc23)C(=O)O)NC(=O)[C@H](Cc2ccccc2)NC(=O)[C@H](CCC(=O)O)NC(=O)[C@H](Cc2c[nH]cn2)NC(=O)CNC(=O)[C@H](Cc2ccc(O)cc2)NC(=O)[C@H](CC(N)=O)NC(=O)[C@H](CCCNC(=N)N)NC(=O)[C@H](C(C)C)NC1=O [23–446] (H-GLRERCVRNYGHEFCQNWYW-OH; disulfide 6-15)		3.88e+06 M⁻¹ s⁻¹	
CC[C@H](C)[C@H](NC(=O)[C@H](CO)NC(=O)[C@H](Cc1c[nH]c2ccccc12)NC(=O)[C@H](CC(C)C)NC(=O)[C@H](CCSC)NC(=O)[C@@H]1CSSC[C@H](NC(=O)[C@H](CC(C)C)NC(=O)[C@@H](NC(=O)[C@H](CCC(N)=O)NC(=O)[C@H](CC(C)C)NC(=O)[C@@H](N)CC(C)C)[C@@H](C)O)C(=O)N[C@@H](CCC(N)=O)C(=O)N[C@@H](CCSC)C(=O)N[C@@H]([C@@H](C)O)C(=O)N[C@@H](CO)C(=O)N[C@@H](CC(=O)O)C(=O)N[C@@H](C)C(=O)N[C@@H](CCCNC(=N)N)C(=O)N[C@@H]([C@@H](C)O)C(=O)N1)C(=O)O [23–443] (H-LLQTLCQMTSDARTCMLWSI-OH; disulfide 6-15 (inferred); N-terminus and C-terminus assumed)			Kd (IL-23; IL-23-AVI captured on streptavidin chip, 25°C, 1:1 binding model, n = 1, 23–447 an estimate, NB: not binding as free peptide): > 30 µM; binding to IL-23 as a free peptide (IL-23; chemically synthesized peptide): did not retain its binding

Now from value to compound, other results behind:

response [1]	kon (IL-23; [2])	Compound	other results
22		wild-type IL-23 displayed on yeast (from UniProt Q9NPF7;P29460) K20A	
	36600 M⁻¹ s⁻¹	CSCC[C@H](NC(=O)[C@H](CCC(N)=O)NC(=O)[C@@H]1CSSC[C@H](NC(=O)[C@H](Cc2ccccc2)NC(=O)[C@H](CO)NC(=O)[C@H](CCCCN)NC(=O)[C@@H](NC(=O)[C@H](CC(C)C)NC(=O)[C@@H](NC(=O)[C@@H](N)CC(=O)O)[C@@H](C)O)[C@@H](C)O)C(=O)N[C@@H](Cc2ccc(O)cc2)C(=O)N[C@@H](Cc2ccccc2)C(=O)NCC(=O)N[C@@H]([C@@H](C)O)C(=O)N[C@@H](Cc2c[nH]c3ccccc23)C(=O)N1)C(=O)N[C@@H](Cc1ccc(O)cc1)C(=O)NCC(=O)N[C@@H](CO)C(=O)N[C@H](C(=O)O)[C@@H](C)O [23–652] (H-DTLTKSFCYFGTWCQMYGST-OH; disulfide 8-14)	
